# Assay results from patent US12484574B2, “Agent for promoting undifferentiation and cryoprotective agent using aprotic zwitterion” (JAPAN SCIENCE AND TECHNOLOGY AGENCY, priority 2019, dated 2025).
# Marks after values point to notes of the source that are not given here.
# Columns and labels:
# [1] = Glass transition temperature and heat quantity by differential scanning calorimetry (DSC); assay type: physicochemical; settings: 10 wt % in purified water, cooling −1° C./min, heating 5° C./min
# Method: The glass transition temperature and the heat quantity were determined by differential scanning calorimetry (DSC). The measurement was performed with a cooling rate set to −1° C./min an d a heating rate set to 5° C./min.
# Human renal cell = assay: Cell freezing experiment 4 (slow freezing), viable cell count as ratio to OE2imC3C; assay type: cell-based; settings: −80° C., −1° C./min
# Method: (§1) As for the cryopreservation solution, the aprotic zwitterion of each example was dissolved by the addition of purified water to prepare test solutions containing 5% by weight and 10% by weight of the aprotic zwitterion.
# (§2) The cells to be frozen were centrifugally recovered by trypsin treatment and diluted with Dulbecco's modified Eagle medium (DMEM), and each cell concentration was measured. The types and cell concentrations of the cells are as follows. • Mouse skin fibroblasts 5.0×10^5 cells/100 μl • Human renal fat cells 5.0×10^5 cells/100 μl
# (§3) Subsequently, the cells of each type were dispensed at 1 ml/tube to 1.5 ml tubes, centrifuged, suspended in 100 μl each of the cryopreservation solutions described above, and frozen at a cooling temperature of −80° C. at a cooling rate of −1° C./min using a cell freezing container Mr. Frosty®.
# (§4) 1 ml of a medium was added to the cryopreservation vial for thawing, and a supernatant was removed by centrifugation. Subsequently, the cells obtained by centrifugation were resuspended in a medium, followed by the measurement of a viable cell count. The results are indicated by a ratio to the viable cell count of OE2imC3C.
# Mouse skin fibroblast = assay: as above; assay type: cell-based; settings: −80° C., −1° C./min
# Method: as §1, §2, §3, §4
# Wild-type zebrafish AB* = assay: Influence on development of zebrafish; assay type: in vivo; settings: for Survival rate: fertilized eggs cultured 1.5 to 24 hours
# Method: All experiments were conducted based on a protocol approved by the animal experiment committee of Kanazawa University. Wild-type zebrafish AB* was raised at 28.5° C. with 14-hour light/10-hour dark cycles in a circulating water system. The medium used was E3 medium (5 mM NaCl, 0.17 mM KCl, 0.33 mM CaCl2, 0.33 mM MgSO4). The medium was supplemented with 1%, 2%, 5% or 10% DMSO or HLS (OE2imC3C). For each test group, eggs were fertilized and then cultured for 1.5 to 24 hours. The embryos thus cultured were washed with E3 medium twice and treated with 1-phenyl-2-thiourea (FUJIFILM Wako Pure Chemical Corp.) in order to prevent pigmentation. The embryos were stained with 0.6 mg/mL o-dianisidine (Tokyo Chemical Industry Co., Ltd.) for 15 minutes and fixed in 4% paraformaldehyde (FUJIFILM Wako Pure Chemical Corp.). The embryos were washed with phosphate-buffered saline containing 0.1% Tween (Sigma-Aldrich Co. LLC) twice. The survival rate was similar between DMSO and HLS (OE2imC3C) up to the 2% addition groups, whereas the survival rate differed largely therebetween in the 5% addition groups.
# human fibroblasts = assay: Influence on cell cycle (Click-iT Plus EdU cell proliferation assay); assay type: cell-based; settings: 2% addition; compared with no addition; FIG. 11
# Method: The cells used were human fibroblasts.
# The test groups were 1% addition groups and 2% addition groups of DMSO and HLS (OE2imC3C) vs. a control.
# Cell cycle analysis was conducted using Click-iT® Plus EdU cell proliferation assay (Thermo Fisher Scientific Inc.) containing 5-ethynyl-2′-deoxyuridine (EdU) according to the manufacturer's protocol. The cells were incubated in 10 μM EdU for 1 hour, treated with trypsin, then fixed in 4% PFA, and labeled with Alexa Fluor 647 picolyl azide. The cells were stained with 4′,6-diamidino-2-phenylindole (DAPI) and analyzed with BD FACSAria™ III (BD Biosciences).
Heat quantity [1] [J/g],Tg [1] [°C],Structure (SMILES),also measured
-210.34,−86.07,C=CCn1cc[n+](CCCCS(=O)(=O)[O-])c1 [AimC4S],
-188.49,−86.07,COCCn1cc[n+](CCCC(=O)[O-])c1 [OE1imC3C],
-169.61,−84.51,C[n+]1ccn(CCCCCC(=O)[O-])c1 [Example C1imC5C],"viable cell count, ratio to the viable cell count of OE2imC3C (Human renal cell; 5 wt % in purified water): 1.94; viable cell count, ratio to the viable cell count of OE2imC3C (Human renal cell; 10 wt % in purified water): 0.72; viable cell count, ratio to the viable cell count of OE2imC3C (Mouse skin fibroblast; 5 wt % in purified water): 0.82; viable cell count, ratio to the viable cell count of OE2imC3C (Mouse skin fibroblast; 10 wt % in purified water): 1.09"
-213.16,−85.76,C=CCn1cc[n+](CCCS(=O)(=O)[O-])c1 [AimC3S],
-183.73,−74.59,CCCCn1cc[n+](CCCCCC(=O)[O-])c1 [Example C4imC5C],
-182.59,−90.35,O=C([O-])CCC[n+]1ccccc1 [PyC3C],
-188.06,−91.85,C[N+]1(CCCC(=O)[O-])CCCC1 [PyrrC3C],
,,CCCCCCCC[n+]1ccn(CCCS(=O)(=O)[O-])c1 [Example C8imC3S],"viable cell count, ratio to the viable cell count of OE2imC3C (Human renal cell; 5 wt % in purified water): 0.00; viable cell count, ratio to the viable cell count of OE2imC3C (Human renal cell; 10 wt % in purified water): 0.33; viable cell count, ratio to the viable cell count of OE2imC3C (Mouse skin fibroblast; 5 wt % in purified water): 0.00; viable cell count, ratio to the viable cell count of OE2imC3C (Mouse skin fibroblast; 10 wt % in purified water): 0.04"
-173.36,−88.88,Cn1cc[n+](CCCS(=O)(=O)[O-])c1 [Example C1imC3S],
-182.67,−74.96,"CCCCCCCCCCCCCC[N+](C)(C)CCCC(=O)[O-] [N1,1,14C3C]","viable cell count, ratio to the viable cell count of OE2imC3C (Human renal cell; 5 wt % in purified water): 0.59; viable cell count, ratio to the viable cell count of OE2imC3C (Human renal cell; 10 wt % in purified water): 0.56; viable cell count, ratio to the viable cell count of OE2imC3C (Mouse skin fibroblast; 5 wt % in purified water): 0.58; viable cell count, ratio to the viable cell count of OE2imC3C (Mouse skin fibroblast; 10 wt % in purified water): 0.77"
-198.66,−75.3,CCCCn1cc[n+](CCCC(=O)[O-])c1 [Example C4imC3C],
-190.82,−83.34,COCCOCCn1cc[n+](CCCCCC(=O)[O-])c1 [OE2imC5C],
-190.84,−85.48,COCCOCCn1cc[n+](CCCS(=O)(=O)[O-])c1 [OE2imC3S],
,,"C[S+](C)[O-] [DMSO, dimethyl sulfoxide]","development of surviving fertilized eggs (abnormality) (Wild-type zebrafish AB*; 5 % v/v in E3 medium): did not normally develop; Survival rate (Wild-type zebrafish AB*; Concentration 1 % (v/v for DMSO, w/v for HLS) in E3 medium): 27/27; Survival rate (Wild-type zebrafish AB*; Concentration 2 % (v/v for DMSO, w/v for HLS) in E3 medium): 27/27; Survival rate (Wild-type zebrafish AB*; Concentration 5 % (v/v for DMSO, w/v for HLS) in E3 medium): 4/27*; Survival rate (Wild-type zebrafish AB*; Concentration 10 % (v/v for DMSO, w/v for HLS) in E3 medium): 0/27; influence on cell cycle (G0/G1 phase, S phase) (human fibroblasts): prolonged the G0/G1 phase and drastically shortened the S phase"
-182.17,−85.74,C=Cn1cc[n+](CCCC(=O)[O-])c1 [VimC3C],
-188.37,−85,C=CCn1cc[n+](CCCC(=O)[O-])c1 [AimC3C],
-199.61,−95.22,Cn1cc[n+](CCCC(=O)[O-])c1 [Example C1imC3C],
-170.72,−81.06,C=Cn1cc[n+](CCCS(=O)(=O)[O-])c1 [VimC3S],
-187.42,−84.05,CCCCCCCCn1cc[n+](CCCC(=O)[O-])c1 [Example C8imC3C],
